From patent US20080220056A1, “Treatment for liver disease” (UNIVERSITY OF SOUTHAMPTON, priority 2002, published 2008)

Key:
[1] = system: carbon tetrachloride model of liver fibrosis; experiment: Carbon tetrachloride (in vivo) model of liver fibrosis, single gliotoxin injection; parameters: species or system rat; details: for Serum ALP / Serum ALT: killed 24 hours after gliotoxin
Experimental: Rats were randomly sorted into groups and treated with 2 mL CCl4:olive oil (1:1 [vol/vol])/kg body weight by intraperitoneal injection twice weekly to cause liver fibrosis. Control animals were treated with 1 mL olive oil/kg body weight by intraperitoneal injection. Gliotoxin was administered at up to 3 mg gliotoxin/kg body weight by intraperitoneal injection. Gliotoxin was dissolved in dimethyl sulfoxide (DMSO) as a vehicle, and control animals received DMSO alone.
At the required time, rats were killed by carbon dioxide asphyxiation and tissues removed for analysis. Serum was prepared and analyzed for alkaline phosphatase and alanine aminotransferase activities essentially as previously described. (Wright et al., Biochem. Pharmacol., (1992) 43:237-243) Histochemical staining of formalin-fixed liver sections with H&E, Sirius red, and immunochemical staining for α-smooth muscle actin were performed essentially as previously described (Iredale et al.,—1998—supra)
The effect of a single injection of gliotoxin on α-smooth muscle actin liver immunostaining after treatment for seven weeks with carbon tetrachloride was then determined. One day after the final injection of carbon tetrachloride, rats were administered gliotoxin and killed after a further day.
The effect of a single injection of gliotoxin on liver TUNEL staining after treatment for seven weeks with carbon tetrachloride was measured. One day after the final injection of carbon tetrachloride, rats were administered gliotoxin and then killed after a further day. Control animals received DMSO alone in place of gliotoxin. Liver sections from the rats were TUNEL stained with or without the incorporation of dUTP in the staining protocol. Sections were then counterstained with hematoxylin.
The effect of a single injection of gliotoxin on liver sirius red staining after treatment for seven weeks with carbon tetrachloride was then determined. As before, one day after the final injection of carbon tetrachloride, rats were administered gliotoxin and killed after a further day.

hepatic stellate cells = experiment: TUNEL staining of cycloheximide-treated hepatic stellate cells; format: cell-based; details: 50 μM cycloheximide 18 h; TIMP-1 100 ng/ml
Experimental: Hepatic stellate cells were cultured on glass chamber slides and then exposed to 50 μM cycloheximide for 18 h with and without TIMP-1 (100 ng/ml). Slides were then stained for DNA fragmentation characteristic of apoptosis by the TUNEL reaction as previously described (Iredale et al., J. Clin. Invest., (1998) 102, 538-549) with the modifications recently described to reduce false positively (Stahelin et al., Mol. Pathol., (1998) 51, 204-208). Each slide was then analyzed by a blinded observer who counted the number of TUNEL-positive apoptotic figures and the TUNEL-negative cells over 10 high power fields for each condition.
A further pathognomonic feature of apoptosis is the fragmentation of DNA into oligonucleosomal lengths (Evan et al., Cell (1992) 69: 119-128). Fragmented DNA can be identified by the TUNEL technique, which can therefore be used to further quantify the apoptotic response of hepatic stellate cells in the presence and absence of cycloheximide. To assess DNA fragmentation activated hepatic stellate cells were therefore induced to undergo apoptosis by cycloheximide treatment in the presence and absence of TIMP-1 and the number of TUNEL positive cells assessed. […] As a control cells which were treated with serum alone were analyzed. […]

[2] = system: Fas and Fas ligand in human hepatic stellate cells; experiment: Enzyme-linked immunosorbent assay for Fas and Fas ligand; format: cell-based; details: TIMP-1 142.5 ng/ml, 18 hours, serum deprivation, versus BSA alone
Experimental: Human hepatic stellate cells were grown to confluence and exposed to BSA with and without TIMP-1. Cells and supernatants were harvested, and protein extracts were assayed for Fas and Fas ligand by commercial enzyme-linked immunosorbent assay following the manufacturer's instructions (Calbiochem). The quantities of Fas and Fas ligand were normalized to cell number by DNA quantification using the PicoGreen technique.
Experiments were next performed to determine whether TIMP-1 regulated Fas ligand cleavage in human hepatic stellate cells. Hepatic stellate cells were incubated for 18 hours in conditions of absolute serum deprivation with BSA or BSA with TIMP-1 (142.5 ng/ml). The cells were extracted, and supernatants were collected. After normalizing for cell number (by DNA concentration using the PicoGreen technique), these extracts were analyzed by enzyme-linked immunosorbent assay for Fas and Fas ligand as described under Materials and Methods. […] Supernatant Fas and Fas ligand protein levels were undetectable in all experimental conditions (data not shown, n 3).

[3] = target: T1, recombinant human caspase-3 (Homo sapiens, UniProt P42574); experiment: Direct effect on recombinant caspase-3; format: biochemical; details: TIMP-1 285-2850 ng/ml, 1 hour preincubation
T1 construct: purchased Calbiochem
T1 sequence (P42574 29-175 limits assumed): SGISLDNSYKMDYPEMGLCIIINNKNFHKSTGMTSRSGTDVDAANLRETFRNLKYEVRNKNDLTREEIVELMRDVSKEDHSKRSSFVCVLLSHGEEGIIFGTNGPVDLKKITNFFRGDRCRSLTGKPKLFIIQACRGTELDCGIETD
T1 sequence (P42574 176-277 limits assumed): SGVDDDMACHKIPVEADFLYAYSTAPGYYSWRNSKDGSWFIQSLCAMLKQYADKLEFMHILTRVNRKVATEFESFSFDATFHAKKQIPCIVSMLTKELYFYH
Experimental: Apoptosis was quantified by a colorimetric assay for caspase-3 activity (Promega) according to the manufacturer's instructions.
To exclude a direct effect of TIMP-1 on caspase-3 activity, recombinant human caspase-3 (Calbiochem) was incubated with TIMP-1 in varying concentrations (285-2850 ng/ml) for 1 hour before caspase-3 substrate was added to the reaction.

[4] = single gliotoxin injection 0.3 mg/kg i.p., CCl4 twice weekly seven weeks
[5] = single gliotoxin injection 0.3 mg/kg i.p., no CCl4 (olive oil seven weeks)
[6] = single gliotoxin injection 3 mg/kg i.p., CCl4 twice weekly seven weeks
[7] = single gliotoxin injection 3 mg/kg i.p., no CCl4 (olive oil seven weeks)

CN1C(=O)[C@]23CC4=CC=C[C@H](O)[C@H]4N2C(=O)[C@@]1(CO)SS3 [gliotoxin]
reduction in number of α-smooth muscle actin-positive cells in CCl4 treated rat liver ([1]; single dose of 3 mg/kg body wt): 57% | Liver α-sma staining (number of α-sma-positive cells) [1, 4]: 35 ± 11.4 | Sirius red staining (mid intralobular μm) [1, 4]: 9 ± 2.3 μm | Serum ALP [1, 4]: 790 ± 128 μ/mL | Serum ALT [1, 4]: 1310 ± 342 μ/mL | Liver α-sma staining (number of α-sma-positive cells) [1, 5]: 2.5 ± 0.70 | Sirius red staining (mid intralobular μm) [1, 5]: 0 μm | Serum ALP [1, 5]: 336 ± 48 μ/mL | Serum ALT [1, 5]: 59 ± 4 μ/mL | Liver α-sma staining (number of α-sma-positive cells) [1, 6]: 16 ± 6.4 | Sirius red staining (mid intralobular μm) [1, 6]: 7 ± 3.6^£ μm | Serum ALP [1, 6]: 755 ± 295 μ/mL | Serum ALT [1, 6]: 1740 ± 1100 μ/mL | Liver α-sma staining (number of α-sma-positive cells) [1, 7]: 1.2 ± 0.24 | Sirius red staining (mid intralobular μm) [1, 7]: 0 μm | Serum ALP [1, 7]: 269 ± 25 μ/mL | Serum ALT [1, 7]: 50 ± 5 μ/mL | TUNEL-positive cells in liver regions staining for α-smooth muscle actin ([1]; single gliotoxin injection after seven weeks CCl4): increase in the number of TUNEL-positive cells | fibrosis on blinded examination of sirius red stained liver sections ([1]; single injection of gliotoxin at 3 mg/kg after seven weeks CCl4): significantly reduced fibrosis | change in serum liver enzyme levels ([1]; single injection of gliotoxin to control or carbon tetrachloride treated rats): did not result in any significant change in serum liver enzyme levels

TIMP-1: recombinant tissue inhibitor of matrix metalloproteases 1 (Biogenesis)
cells containing fragmented DNA (TUNEL) (hepatic stellate cells): significantly reduced numbers of cells containing fragmented DNA | cellular Fas or Fas ligand protein levels [2]: had no effect on cellular Fas or Fas ligand protein levels | direct effect on caspase-3 activity [3]: did not reduce caspase-3 activity directly
